In patent US20180353755A1, “EPIDURAL STIMULATION FOR FACILITATION OF LOCOMOTION, POSTURE, VOLUNTARY MOVEMENT, AND RECOVERY OF AUTONOMIC, SEXUAL, VASOMOTOR, AND COGNITIVE FUNCTION AFTER NEUROLOGICAL INJURY” (NeuroRecovery Technologies, Inc., priority 2014, published 2018):

Test system: rat with complete mid-thoracic spinal cord transection
Experiment: Locomotor behavior of rats one week after complete mid-thoracic spinal cord transection, drug therapy with or without epidural stimulation (FIG. 1)
Type: in vivo
Settings: one week post-injury; for Locomotor behavior, epidural stimulation in combination with a single drug: epidural stimulation simultaneously at L2 plus S1; for Locomotor behavior after administration of drug: no epidural stimulation
Description: FIG. 1 summarizes recent experiments in rats that were carried out to assess the effectiveness of epidural stimulation coupled with combined drug therapy in the treatment of complete spinal cord injuries. The combination of quipazine and 8-OHDPAT with simultaneous epidural stimulation at spinal sites L2 and S1 results in robust coordinated stepping as early as one week after a complete spinal cord transection. Locomotor behavior observed from a typical rat before the injury and one week after a complete mid-thoracic spinal cord transection. The amount of body weight support provided to the rat is shown in red. One week post-injury, no spontaneous stepping activity is observed. […] Sol, soleus; TA, tibialis anterior;MTP, metatarsal-phalangeal.
FIG. 1 summarizes experiments in rats that were carried out to assess the effectiveness of epidural stimulation coupled with combined drug therapy in acute treatment of complete spinal cord injury.

Row | Compound | Locomotor behavior, epidural stimulation in combination with a single drug | Locomotor behavior after administration of drug
1 | CCCN(CCC)C1CCc2cccc(O)c2C1 (stereo not shown) [8-OHDPAT] | enables plantar stepping | erratic movements
2 | c1ccc2nc(N3CCNCC3)ccc2c1 [Quipazine] | enables plantar stepping | erratic movements
